Data from ChEMBL document CHEMBL1156433, “Multiple sequential steps involved in the binding of inhibitors to cytochrome P450 3A4” (J Biol Chem, 2007).
Peptide text beside a SMILES is read from it.

Biological target: Cytochrome P450 3A4 (Homo sapiens, UniProt P08684)
Experiment: Binding affinity to recombinant CYP3A4 expressed in Escherichia coli assessed as spectral dissociation constant by spectrophotometric equilibrium binding titration method
Type: ADME
Details: read-out: K

Chain of Cytochrome P450 3A4 (P08684 whole entry): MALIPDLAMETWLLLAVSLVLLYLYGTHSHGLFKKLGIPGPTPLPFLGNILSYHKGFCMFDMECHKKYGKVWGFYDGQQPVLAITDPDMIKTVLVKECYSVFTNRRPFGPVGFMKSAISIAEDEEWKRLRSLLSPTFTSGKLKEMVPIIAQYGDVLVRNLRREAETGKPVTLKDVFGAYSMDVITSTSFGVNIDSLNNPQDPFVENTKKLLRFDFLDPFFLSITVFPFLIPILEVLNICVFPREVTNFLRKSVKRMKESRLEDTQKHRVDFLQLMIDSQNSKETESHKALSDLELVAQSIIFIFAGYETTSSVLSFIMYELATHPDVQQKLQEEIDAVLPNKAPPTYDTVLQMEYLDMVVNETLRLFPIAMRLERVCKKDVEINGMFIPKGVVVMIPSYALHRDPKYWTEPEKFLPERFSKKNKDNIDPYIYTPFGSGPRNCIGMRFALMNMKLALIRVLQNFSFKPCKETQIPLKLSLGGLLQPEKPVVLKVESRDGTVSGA

## NC(=O)[C@@H]1CCCN1C(=O)[C@H](Cc1ccccc1)NC(=O)[C@@H]1CCCN1C(=O)[C@@H](N)Cc1ccc(O)cc1 [MORPHICEPTIN] (H-YPFP-NH2)
  Kd: 7.8 mM
